For this assay, the system named is L-Procaine aptamer (DNA, aptamer) GGCGACAAGGAAAATCCTTCAACGAAGGTGGGTGGCC
In words: E-AB square wave voltammetry, 3D-printed gold electrode cell. The following applies: undiluted human serum; in serum; immobilised aptamer; apparent; Hill fit.

Take `CCN(CC)CCOC(=O)c1ccc(N)cc1`: the 50% effective concentration (EC50) – broadly, the concentration needed to bring the measured effect to its halfway point – was 59.2 mM.

(Values after article PMC11325214 (2024).)
